Patent US9168247B2, “Beta carboline derivatives useful in the treatment of proliferative disorders” (FACULTES UNIVERSITAIRES NOTRE DAME DE LA PAIX, priority 2010, dated 2015)
Where two headings read alike, the source gives them in different places.

Experiments:
[1] = tested on: human cancer cell lines (U373, T98G, Hs683, OE21, OE33); experiment: MTT test, mean over the cancer cell lines; type: cell-based
Experimental: (§1) MTT tests were performed in order to rapidly, i.e., within 5 days, measure the effect of the present compounds on the overall cell growth. The test measured the number of metabolically active living cells that were able to transform the yellow product 3-(4,5-dimethylthiazol-2-yl)-2,5-diphenyl tetrazolium bromide (herein referred as MTT) into the blue product formazan dye by mitochondrial reduction. The amount of formazan obtained at the end of the experiment, measured by means of a spectrophotometer, is directly proportional to the number of living cells. Optical density determination thus enabled a quantitative measurement of the effect of the investigated compounds as compared to the control condition (untreated cells) and/or to other reference compounds.
(§2) Five human cancer cell lines set forth in Table 3 were used in the MTT tests. These cancer cell lines cover two histological cancer types including glioma (Hs683, T98G, U373), and oesophageal (OE21, OE33) cancers. The U373 cell line is apoptosis-resistant but autophagy-sensitive.
(§3) To perform the assay, cells were allowed to grow in 96-well micro-wells with a flat bottom with an amount of 100 μl of cell suspension per well with 5,000 to 8,000 cells/well depending on the cell type used. Each cell line was seeded in its appropriate culture medium.
(§4) The detailed experimental procedure was as follows: after a 24-hour period of incubation at 37° C., the culture medium was replaced by 100 μl of fresh medium in which the tested compound was previously dissolved, at the following molar concentrations: 1×10^−8 M, 5×10^−8 M, 1×10^−7 M, 5×10^−7 M, 1×10^−6 M, 5×10^−6 M, 1×10^−5 M, 5×10^−5 M and 1×10^−4 M. Each experiment was performed in sestuplicate (6 times).
(§5) After 72 hours of incubation at 37° C. with (experimental conditions) or without (control condition) the compound to be tested, the medium was replaced by 100 μl MTT dissolved in RPMI (1640 without phenol red) at a concentration of 0.5 or 1 mg/ml. The micro-wells were subsequently incubated during 3 hours and a half at 37° C. and centrifuged at 1300 rpm during 10 minutes. MTT was removed and formazan crystals formed were dissolved in […]. The micro-wells were shaken for 5 minutes and read on a spectrophotometer at wavelengths of 570 nm (maximal formazan absorbance).
(§6) For each experimental condition, the mean optical density was calculated, allowing the determination of the percentage of remaining living cells in comparison to the control.
(§7) The origin of all the cell lines we used, along with their biological characteristics, and the validation procedures of the MTT colorimetric assay as employed here are fully detailed in Van Quaquebeke et al., 2005, J Med Chem 48:849-856; Ingrassia et al., 2009, J Med Chem 52:1100-1114; Mathieu et al., 2009, J Cell Mol Med, Feb. 20, 2009.

[2] = tested on: OE21 oesophageal cancer cells; experiment: MTT test, overall cell growth, OE21; type: cell-based, human
Experimental: as §1, §2, §3, §4, §5, §6, §7

[3] = tested on: OE33 oesophageal cancer cells; experiment: MTT test, overall cell growth, OE33; type: cell-based, human
Experimental: as §1, §2, §3, §4, §5, §6, §7

U373 glioma cells = experiment: MTT test, overall cell growth, U373; type: cell-based, human; settings: 72 hours of incubation
Experimental: as §1, §2, §3, §4, §5, §6, §7

Hs683 glioma cells = experiment: MTT test, overall cell growth, Hs683; type: cell-based, human
Experimental: as §1, §2, §3, §4, §5, §6, §7

T98G glioma cells = experiment: MTT test, overall cell growth, T98G; type: cell-based, human; settings: 72 hours of incubation
Experimental: as §1, §2, §3, §4, §5, §6, §7

U373 cells = experiment: Cellular imaging (videomicroscopy) of cultured U373 cells: antiproliferative class and global growth ratio; type: cell-based, human; parameters: key to Anti proliferative class / anti-proliferative class-GGR: class I: actually cytostatic for 3 days (<10% of cell death at the 3rd day); class II: cyctostatic but becomes cytotoxic with <10% cell death on the 2nd day, and >20% of cell death on the 3rd day; class III: cytostatic but rapidly becomes cytotoxic with <10% cell death on the 1st day, >20% of cell death on the 2nd day and >50% of cell death on the 3rd day; class IV: cytotoxic (>50% of cell death on the first day); settings: for global growth ratio (GGR): GG treated cells/GG control cells, 72 h after drug addition, drug at its IC50 (MTT-test determined); for Anti proliferative class: cellular imaging of cultured U373 cells over three consecutive days
Description: The effects of the di- and tri-substituted beta-carboline derivatives as described herein can also be determined on cell proliferation, migration and morphology by means of a cellular imaging approach (Debeir et al., Cytometry 60:29-40, 2004; Debeir et al., IEEE Trans Med Imaging 24:697-711, 2005) either in, e.g., the human U373-MG glioma cell line, which is apoptosis-resistant but autophagy-sensitive (Lefranc F et al., Neurosurgery 2008) or in, e.g., the human A549 non-small-cell-lung cancer cell line, which is apoptosis-resistant and autophagy-resistant (Mijatovic T et al., Neoplasia 2006, May; 8(5):402-12).
[…] The experiments are conducted in quadruplicates.
The behaviour of the cells, in terms of morphology, growth and death are thus investigated. The effect on the overall growth is measured by counting the number of cells on the first (0 h) and the last image (72 h) of each film. The global growth ratio (GGR) is then deduced by dividing the number of cells on the last image by the number of cells on the first image. The ratio GGRtreated cells/GGRcontrol cells is further calculated thereby providing a value that describes the effect of compounds of the present invention on the overall cell growth.
The methodology is fully described and validated in Debeir et al., 2008, Exp Cell Res 314:2985-2998 and Mathieu et al., 2009, J Cell Mol Med, Feb. 20, 2009.

[4] = Homo sapiens, mean over the cancer cell lines, MTT test, read-out: IC50 Mean ± SEM
[5] = Homo sapiens, OE21, 72 hours of incubation
[6] = Homo sapiens, OE33, 72 hours of incubation
[7] = Homo sapiens, Hs 683, 72 hours of incubation
[8] = mean over the cancer cell lines, MTT test, read-out: IC50 Mean ± SEM

SMILES | IC50 [1, 4] [µM] | IC50 [2, 5] [nM] | IC50 [3, 6] [nM] | IC50 (U373 glioma cells; Homo sapiens, U373 MG) [nM] | IC50 (Hs683 glioma cells; [7]) [nM] | IC50 (T98G glioma cells; Homo sapiens, T98G) [nM] | IC50 ([1]; Homo sapiens, Table 4, mean over cell lines, read-out: IC50 μM growth inhibition (MTT test)) [µM] | IC50 [1, 8] [µM] | IC50 ([2]; 72 hours of incubation) [nM] | IC50 ([3]; 72 hours of incubation) [nM] | IC50 (U373 glioma cells) [nM] | IC50 (Hs683 glioma cells; 72 hours of incubation) [nM] | IC50 (T98G glioma cells) [nM] | IC50 ([1]; Homo sapiens, Glioma cell, MTT assay, submicromolar range, e.g. as low as, read-out: mean anti-proliferative effect on the glioma cell lines) [µM] | global growth ratio (GGR) (U373 cells) | Anti proliferative class (U373 cells)
Cc1nccc2c3ccc(OCc4cccc(F)c4)cc3n(Cc3cccc(F)c3)c12 [CV5, 1-methyl-7-(3-fluorobenzyloxy)-9-(3-fluorobenzyl)-β-carboline] | 14 ± 5 | 7900 ± 200 | 16000 ± 2000 | 400 ± 60 | 17500 ± 900 | 27000 ± 1000 |  |  |  |  |  |  |  |  | 0.9 | I (class I: actually cytostatic for 3 days (<10% of cell death at the 3rd day))
Cc1nccc2c3ccc(OCc4ccc(F)cc4)cc3n(Cc3ccc(F)cc3)c12 [CV11, 1-methyl-7-(4-fluorobenzyloxy)-9-(4-fluorobenzyl)-β-carboline] | 20 ± 3 | 15000 ± 2000 | 25000 ± 2000 | 30000 ± 1000 | 17000 ± 2000 | 14000 ± 2000 |  |  |  |  |  |  |  |  | 0.2 | III
Cc1nccc2c3ccc(OCC4CCCCC4)cc3n(CC3CCCCC3)c12 [CV12, 1-methyl-7-cyclohexylmethyloxy-9-cyclohexylmethyl-β-carboline] | 25 ± 4 | 17000 ± 2000 | 15000 ± 3000 | 30700 ± 800 | 30000 ± 2000 | 32000 ± 1000 | 25 |  |  |  |  |  |  |  | 0.2 | II
Cc1c2c(cc[n+]1Cc1ccccc1)c1ccc(OCc3cccc(F)c3)cc1n2Cc1cccc(F)c1.[Br-] [CV16, 1-methyl-2-benzyl-7-(3-fluorobenzyl)oxy-9-(3-fluorobenzyl)43-carbolin-2-ium bromide] |  |  |  |  |  |  |  | 1.6 ± 0.5 | 400 ± 100 | 2900 ± 100 | 820 ± 80 | 2800 ± 400 | 970 ± 20 |  | 0.4 | I (class I: actually cytostatic for 3 days (<10% of cell death at the 3rd day))
Cc1c2c(cc[n+]1Cc1ccccc1F)c1ccc(OCc3ccc(F)cc3)cc1n2Cc1ccc(F)cc1.[Br-] [CV25] |  |  |  |  |  |  |  |  |  |  |  |  |  |  | 0.4 | I (class I: actually cytostatic for 3 days (<10% of cell death at the 3rd day))

Further lines, with some results ahead:

IC50 [1, 4] [µM] | IC50 [2, 5] [nM] | IC50 [3, 6] [nM] | IC50 (U373 glioma cells; Homo sapiens, U373 MG) [nM] | IC50 (Hs683 glioma cells; [7]) [nM] | IC50 (T98G glioma cells; Homo sapiens, T98G) [nM] | IC50 ([1]; Homo sapiens, Table 4, mean over cell lines, read-out: IC50 μM growth inhibition (MTT test)) [µM] | IC50 [1, 8] [µM] | IC50 ([2]; 72 hours of incubation) [nM] | IC50 ([3]; 72 hours of incubation) [nM] | IC50 (U373 glioma cells) [nM] | IC50 (Hs683 glioma cells; 72 hours of incubation) [nM] | IC50 (T98G glioma cells) [nM] | IC50 ([1]; Homo sapiens, Glioma cell, MTT assay, submicromolar range, e.g. as low as, read-out: mean anti-proliferative effect on the glioma cell lines) [µM] | SMILES | global growth ratio (GGR) (U373 cells) | Anti proliferative class (U373 cells)
1.2 ± 0.4 | 610 ± 40 | 2400 ± 300 | 590 ± 60 | 1600 ± 300 | 560 ± 50 |  |  |  |  |  |  |  |  | Cc1c2c(cc[n+]1Cc1ccc(F)cc1)c1ccc(OCc3ccccc3)cc1n2Cc1ccccc1.[Br-] [CV17, 1-methyl-2-(4-fluorobenzyl)-7-benzyloxy-9-benzyl-β-carbolin-2-ium bromide] | 0.4 | I (class I: actually cytostatic for 3 days (<10% of cell death at the 3rd day))
0.48 ± 0.06 | 380 ± 20 | 700 ± 80 | 500 ± 200 | 440 ± 40 | 370 ± 10 |  |  |  |  |  |  |  | 0.34 to 0.8 | Cc1c2c(cc[n+]1Cc1ccccc1F)c1ccc(OCc3ccccc3)cc1n2Cc1ccccc1.[Br-] [CV18, 1-methyl-2-(2-fluorobenzyl)-7-benzyloxy-9-benzyl-β-carbolin-2-ium bromide] | 0.3 | I (class I: actually cytostatic for 3 days (<10% of cell death at the 3rd day))
 |  |  |  |  |  |  | 1.1 ± 0.3 | 1600 ± 300 | 1600 ± 200 | 460 ± 80 | 1200 ± 400 | 430 ± 20 |  | Cc1c2c(cc[n+]1Cc1ccccc1F)c1ccc(OCc3ccc(F)cc3)cc1n2Cc1ccc(F)cc1.[Br-] [CV25, 1-methyl-2-(2-fluorobenzyl-7-(4-fluorobenzyl)oxy-9-(4-fluorobenzyl)-β-carbolin-2-ium bromide] |  | 
 |  |  |  |  |  |  | 21 ± 2 | 17000 ± 2000 |  | 22000 ± 2000 | 26000 ± 3000 | 19000 ± 2000 |  | Cc1c2c(cc[n+]1CC(=O)c1ccccc1)c1ccc(OCc3ccccc3)cc1n2Cc1ccccc1 [CV52] |  | 
